The source of these data is PubChem BioAssay (NCI).

What all share (experiment): NCI tumour cell line growth inhibition, 48 h
Assay [1] concerns A498 renal.
The test system of assay [2] is ACHN renal.
Assay [3] relates to HS 578T breast.
The subject of assay [4] is HT29 colon.
Assay [5] deals with OVCAR-3 ovarian.
For assay [6], the system named is RPMI-8226 leukemia.
Assay [7] relates to SK-MEL-5 melanoma.
Assay [8] relates to SW-620 colon.
Assay [9] deals with UACC-257 melanoma.
The subject of assay [10] is UACC-62 melanoma.

SMILES strings stand for the structures.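 Tested at 5 concentrations; 48 h exposure; 96-well plates; endpoints linearly interpolated, else capped at highest concentration. GI50 = concentration required for 50% inhibition of growth. Definition used: TGI = concentration required for complete inhibition of growth.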

With `CCOC(=O)Nc1ccc2nc(N3CCCCCC3)sc2c1`, the GI50 was 2100 nM in assay [1]; 9.6 µM in [2]; 4530 nM in assay [3]; 440 nM in assay [4]; 1660 nM in assay [5]; 3330 nM in assay [6]. Moreover, the GI50 in [7] is 1040 nM; in [8], 567 nM; in assay [9], 15.2 µM; in assay [10], 1450 nM. Besides, the TGI in assay [1] is 32.2 µM; in assay [2], over 74.1 µM; in [3], over 100 µM; in [4], 9.87 µM; in assay [5], 10.7 µM; in [6], 26.3 µM. The TGI in [7] was 15.9 µM; in [8], over 100 µM; in [9] it was 97.2 µM; in assay [10] it was over 100 µM.
With `CCC(C)C(=O)O[C@H]1C(=O)O[C@@H]2C[C@H]3C(C)=CC(=O)[C@@H](O)[C@]3(C)[C@H]3[C@@H](O)[C@H](O)[C@@]4(C)OC[C@]32[C@@H]14` (stereo not given in full), the TGI in assay [1] is under 0.01 µM; in assay [2] it was 0.566 µM; in assay [3], under 0.01 µM; in assay [4], 0.0272 µM; in [5] it was 0.0906 µM; in assay [6], under 0.0266 µM. The TGI is under 0.0338 µM in [7], 0.28 µM in assay [8], under 0.01 µM in [9] and under 0.0434 µM in [10].
As for `Cc1cncc(-c2nc(NCCc3c[nH]c4ccccc34)c3ncn(C(C)C)c3n2)c1`, the GI50 in assay [1] is 3400 nM; in [2], 3.76 µM; in [3], 2640 nM; in [4], 2110 nM; in assay [5], 5670 nM; in assay [6], 2280 nM. In addition, the GI50 in [7] is 4230 nM; in assay [8] it was 3480 nM; in assay [9], 1.91 µM; in assay [10], 3300 nM. In addition, the TGI in assay [1] stood at 16.9 µM; in assay [2], 13.5 µM; in [3] it was 9.96 µM; in assay [4], 5.17 µM; in assay [5] it was 40.9 µM; in assay [6] it was 5.23 µM. In addition, the TGI in assay [7] worked out at 15.5 µM; in assay [8], 15.1 µM; in assay [9], 3.85 µM; in assay [10], 12.1 µM.
Consider `O=C(CN1CCN(CCN2C(=O)c3cccc4cccc(c34)C2=O)CC1)Nc1ccc2ncsc2c1`, for which the GI50 in assay [1] is 22300 nM; in assay [2], 4.09 µM; in assay [3], 43300 nM; in assay [4], 3610 nM; in assay [5], 7340 nM; in [6] it was 9390 nM. Further, the GI50 in assay [7] was 3700 nM; in assay [8], 3190 nM; in [9], 5.65 µM; in assay [10], 6610 nM. The TGI is over 100 µM in [1]; 16.5 µM in assay [2]; over 100 µM in assay [3]; 16.5 µM in assay [4]; 21.5 µM in assay [5]; 38.1 µM in [6]. Further, the TGI in [7] was found to be 16 µM; in assay [8] it was 19.3 µM; in assay [9], 23.7 µM; in [10], 22.4 µM.
In the case of `O=C(Nc1ccn(C2CC(I)C(COC(c3ccccc3)(c3ccccc3)c3ccccc3)O2)c(=O)n1)c1ccccc1` (stereo not given), the TGI in assay [1] stood at 13 µM; in assay [2], 21.5 µM; in [3], 21.5 µM; in assay [4] it was 21.5 µM; in assay [5], 13 µM; in assay [6], 17 µM. The TGI was 14.9 µM in assay [7], 21.5 µM in [8], 20.4 µM in assay [9] and 15.4 µM in [10].
On to `COc1ccc(C2CC(c3ccccc3)=NN2C(=O)c2cc(OC)c(OC)c(OC)c2)cc1O` (stereo not given), for which the GI50 in [1] was 618 nM; in assay [2], 0.816 µM; in [3], 316 nM; in assay [4] it was 2960 nM; in assay [5], 326 nM; in assay [6], 259 nM. Besides, the GI50 in assay [7] was 338 nM; in [8], 415 nM; in [9], 22.1 µM; in [10], 269 nM. Besides, the TGI in assay [1] was 19.4 µM; in [2] it was 58.1 µM; in assay [3], 1.13 µM; in assay [4], 8.31 µM; in assay [5] it was 3.99 µM; in assay [6], 5.47 µM. Besides, the TGI was 2.17 µM in assay [7], over 55.7 µM in assay [8], over 54.3 µM in assay [9] and 15.8 µM in [10].
On to `CCC(CC)c1cc(N[C@H]2CC[C@H](N)C2)n2nccc2n1`, for which the GI50 was 2530 nM in assay [1]; 1.44 µM in assay [2]; 2270 nM in assay [3]; 735 nM in assay [4]; 1010 nM in [5]; 2610 nM in assay [6]. Further, the GI50 in assay [7] was 2210 nM; in assay [8], 626 nM; in assay [9], 1.84 µM; in assay [10] it was 1450 nM. Also, the TGI was over 100 µM in assay [1]; over 100 µM in [2]; 9.44 µM in [3]; over 100 µM in [4]; over 100 µM in assay [5]; over 100 µM in assay [6]. The TGI was 11 µM in assay [7], over 100 µM in assay [8], 5.87 µM in assay [9] and 3.46 µM in [10].
`Cc1cc(O[C@@H]2O[C@@H](C)[C@H](O)[C@@H](O)[C@H]2O)c2c3c(c(O[C@@H]4O[C@@H](C)[C@H](O)[C@@H](O)[C@H]4O)cc2c1)C(=O)c1c(O)cccc1C3=O`: the GI50 in [1] was over 30000 nM; in assay [2], over 30 µM; in [3], over 30000 nM; in assay [4], over 30000 nM; in assay [5], over 30000 nM; in [6], over 30000 nM. Further, the GI50 in assay [7] is over 30000 nM; in [8] it was over 30000 nM; in assay [9], over 30 µM; in assay [10], over 30000 nM. Besides, the TGI in assay [1], in assay [2], in [3], in assay [4], in [5] and in assay [6] was over 30 µM throughout. Further, the TGI in [7], in [8], in assay [9] and in assay [10] was over 30 µM in each case.
